This is an account of results in US9107415B2, “2-(substituted-phenyl)-cyclopentane-1,3-dione compounds, and derivatives thereof” (Syngenta Limited, priority 2011, dated 2015).

Data set [1] deals with Spring Barley “Harrington”. The data set can be described thus: Biological Example 4B post-emergence phytotoxicity on cereal crops. The data set is classed as in vivo. Particulars: 14 DAA, technical compound in IF50 + Adigor, mean of two. As to the method:
Seeds of a variety of test species are sown in standard soil in pots. After cultivation for 14 days under controlled conditions in a glasshouse (at 22/16°C., day/night; 16 hours light; 65% humidity), the plants are sprayed with an aqueous spray solution derived from the formulation of the technical active ingredient dissolved in acetone plus IF50 containing
10.56 wt % Emulsogen™EL (castor oil ethoxylate, CAS Registry number 61791-12-6)
42.22 wt % N-Methyl pyrrolidone
42.22 wt % dipropylene glycol monoethyl ether
at a 1:20 ratio of (technical active ingredient:IF50). The adjuvant Adigor™(an adjuvant containing inter alia methylated rapeseed oil, e.g. available from Syngenta) is added to form a 0.5% v/v solution. The test plants are then grown on under controlled conditions in the glasshouse (at 22/16°C., day/night; 16 hours light; 65% humidity) and are watered twice daily. After 14 days the test is evaluated (100%=total damage to plant; 0%=no damage to plant).
Post-emergence herbicidal activity (phytotoxicity) data, on certain grassy monocotyledonous weeds and cereal crops in a glasshouse, are measured 14 days after application of the herbicide (14 DAA), for (a) a post-emergence application rate of 60 g/ha of the test herbicide with or without 50 g/ha of cloquintocet-mexyl safener applied at substantially the same time as the herbicide, and (b) for a post-emergence application rate of 30 g/ha of the test herbicide with 50 g/ha of cloquintocet-mexyl safener applied at substantially the same time as the herbicide. Herbicidal activity (phytotoxicity) is evaluated visually, and an assessed percentage phytotoxicity score is given for each herbicidal application on each plant species (with 100%=total damage to plant; 0%=no damage to plant). Two repetitions are made for each experiment, and the mean herbicidal activity (phytotoxicity) data is reported.

Data set [2] can be described thus: Biological Example 5B “RASP” soil persistence method. Particulars: 18 Acres soil. As to the method:
Field soil (of the type “18 Acres”, as described in Biological Example 5A and Table 5.1 above) is sieved to 2 mm. The sieved soil is wetted up with distilled water, mixing thoroughly until it reaches “field capacity”. […] Usually, the moisture content of the soil used is about 25%.
For each compound tested, 6×50 mL polypropylene centrifuge tubes containing 10 g±0.5 g of soil at field capacity are used. Each tube lid has a 2 mm hole to allow for air circulation during the incubation period.
4×10 microliters of treatment solutions of the compounds to be tested are applied to the surface of the soil in groups of 6 tubes. 4×10 microliter drops are also dispensed into the treatment check vials and these are diluted to 1 mL with acetonitrile; at this point additional samples can be prepared for HPLC method development if required.
Two of the tubes containing the treated soil are capped and immediately frozen as T0 (day zero) samples. The remaining four samples are capped with lids containing a 2 mm hole drilled into the lid and incubated in controlled environment cabinets for the correct time interval at 20°C., 80% relative humidity.
After both one and four weeks incubation, two tubes from each treatment are removed from the cabinets, the lids are replaced for ones lacking ventilation holes and the tubes are frozen. When the samples are ready for analysis, a zero time, 1 week and 4 week sample for each compound is removed from the freezer and allowed to thaw. Immediately after thawing, 40 mL of extraction solution is added to the samples.
Samples are extracted using a mixture such as 80:20 (v/v) acetonitrile/1 M ammonium hydroxide solution. […]
All samples from the test are analysed by UPLC-MS. […]
For each compound, the molecular ion giving the best sensitivity is chosen and a single ion monitoring method is set up. The method development samples are re-analysed using the selected ion monitoring methods to check that suitable sensitivity is obtained.
Degradation kinetics, and an estimated half-life (T½) of the compound in the soil, can then be calculated using simple first order assumptions.

For data set [3], the system named is Spring Barley “Harrington”. The data set can be described thus: Biological Example 4B post-emergence phytotoxicity on cereal crops. The data set is classed as in vivo. Conditions: 15 g/ha, cloquintocet-mexyl 50 g/ha, 14 DAA, technical compound in IF50 + Adigor, mean of two.
[4] abbreviates: 30 g/ha, cloquintocet-mexyl 50 g/ha.
Setting [5] is: 60 g/ha, cloquintocet-mexyl 0 g/ha.
The mark [6] stands for this setting: 60 g/ha, cloquintocet-mexyl 50 g/ha.

Take `CC#Cc1cc(C)c(C2C(=O)CC(Cc3ccn(C)n3)C2=O)c(C)c1` (stereo not shown) [Compound A-19]: the “Spring Barley “Harrington” phytotoxicity (%)” value came to 38% in data set [1] (setting [4]), 98% in data set [1] (setting [5]), 94% in data set [1] (setting [6]) and 3% in data set [3]. For the same molecule, the “RASP Test: % of compound remaining at 0 weeks” value in data set [2] (0 weeks) worked out at 80%. Besides, the “RASP Test: % of compound remaining at 1 week” value in data set [2] (1 week incubation at 20°C) worked out at 79%. Besides, the “RASP Test: % of compound remaining at 4 weeks” value in data set [2] (4 weeks incubation at 20°C) was found to be 80%.
With `CC#Cc1cc(C)c(C2=C(O)CC(Cc3ccc(C)cn3)C2=O)c(C)c1` (stereo not shown) [Compound A-8], the “Spring Barley “Harrington” phytotoxicity (%)” value was determined as 18% in data set [1] (setting [4]), 85% in data set [1] (setting [5]) and 75% in data set [1] (setting [6]).
In the case of `CC#Cc1cc(C)c(C2=C(O)CC(Cc3ccc(F)cn3)C2=O)c(C)c1` (stereo not shown) [Compound A-11], the entries for the “Spring Barley “Harrington” phytotoxicity (%)” value in data set [1] (setting [4]), in data set [1] (setting [5]) and in data set [1] (setting [6]) were 8%, 58% and 13%, respectively.
On the same counts, the results for `CC#Cc1cc(C)c(C2=C(O)CC(Cc3ccc(C#N)cn3)C2=O)c(C)c1` (stereo not shown) [Compound A-14] are 70%, 95% and 95%.
